Measured values from publication PMC10486429, “Investigations Using Albumin Binders to Modify the Tissue Distribution Profile of Radiopharmaceuticals Exemplified with Folate Radioconjugates” (Cancers, 2023).

Experiments:
[1] = target: human serum albumin (HSA) in human plasma (Homo sapiens, UniProt P02768); test: Ultrafiltration albumin-binding assay of 177Lu-RedFols, human plasma; settings: for Relative albumin-binding affinity: human blood plasma, inverse B50 ratio, normalized to the respective (6R or 6S) RedFol-1, set as 1.0; for Albumin-bound fraction: undiluted human blood plasma
human serum albumin (HSA) in human plasma, sequence (P02768 25-609): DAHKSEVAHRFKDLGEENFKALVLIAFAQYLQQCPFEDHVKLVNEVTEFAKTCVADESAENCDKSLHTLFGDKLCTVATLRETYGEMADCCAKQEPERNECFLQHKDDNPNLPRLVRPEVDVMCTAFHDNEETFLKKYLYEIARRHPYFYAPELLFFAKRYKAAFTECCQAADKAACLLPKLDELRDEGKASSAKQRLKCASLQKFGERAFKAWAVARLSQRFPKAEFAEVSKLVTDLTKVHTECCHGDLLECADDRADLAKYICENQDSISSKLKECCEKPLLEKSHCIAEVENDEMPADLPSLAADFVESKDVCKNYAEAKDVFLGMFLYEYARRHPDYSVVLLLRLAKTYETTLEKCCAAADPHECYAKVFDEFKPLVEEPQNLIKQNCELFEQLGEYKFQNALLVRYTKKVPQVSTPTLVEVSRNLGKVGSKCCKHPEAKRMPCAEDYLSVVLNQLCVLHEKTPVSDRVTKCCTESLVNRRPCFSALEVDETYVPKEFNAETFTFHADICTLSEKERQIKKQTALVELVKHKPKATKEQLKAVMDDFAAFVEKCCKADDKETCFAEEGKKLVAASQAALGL
Procedure: An ultrafiltration method was applied according to a previously published procedure (Supplementary Materials Section S11) that was different from the one reported for the ^177Lu-DOTA-ALBs to prevent non-specific binding to the filter units. Briefly, the albumin-bound fraction was determined at different molar concentration ratios of serum albumin relative to the ^177Lu-labeled RedFols using a blood plasma/PBS dilution series and constant amounts of the respective ^177Lu-labeled folate conjugate (0.3 MBq; 0.006 nmol). The albumin-bound fraction was separated from the free (albumin-unbound) fraction of each sample using Amicon centrifugal filters (cut-off of 10 kDa; Merck Millipore, Carrigtwohill, Ireland). The inserts of the filter devices were inverted and centrifuged to recover the albumin-bound fraction, whereas filter-bound activity was considered as free (albumin-unbound) folate radioconjugate. The activity of the different fractions was measured using a γ-counter (Perkin Elmer, Wallac Wizard 1480, Waltham, MA, USA), and the proportion of albumin-bound radioconjugate was set in relation to the total activity measured. The data were analyzed in analogy to those of ^177Lu-DOTA-ALBs (Section 2.1.3). The relative albumin-binding affinity was assessed by calculating the inverse ratio of the B50 value of each 6R-5-MTHF-based folate radioconjugate to the B50 value of [^177Lu]Lu-6R-RedFol-1 (set as 1.0) and of each 6S-5-MTHF-based folate radioconjugate to the B50 value of [^177Lu]Lu-6S-RedFol-1 (set as 1.0). The results were presented as average ± SD of n = 3 independent experiments. […]
S11. Relative Albumin-Binding Properties of 177Lu-RedFols
Purpose: The affinity of the folate radioconjugates to serum albumin in mouse and human blood plasma was determined and compared.
Methods: The albumin-binding affinity of the 177Lu-RedFols was assessed using mouse plasma (Rockland Immunochemicals, Inc., Pottstown, PA, USA, Lot N: 32321; MSA: ⁓550 µM) and human plasma (Stiftung Blutspende SRK Aargau-Solothurn, Aarau, Switzerland; HSA: ⁓800 µM), respectively. An ultrafiltration method was applied accord-ing to a previously published procedure that was different from the one reported for the 177Lu-DOTA-ALBs to avoid non-specific binding to the filter units.
The folate radioconjugates (50 MBq/nmol, ~300 kBq, 6 pmol in 15 µL) were added to samples of mouse and human blood plasma (150 µL), followed by incubation of the sam-ples at 37 °C for 30 min. The samples were loaded on Amicon centrifugal filters (cut-off of 10 kDa; Merck Millipore, Carrigtwohill, Ireland) followed by centrifugation (14000 rcf, 30 min, 4 °C) to allow the separation of the serum albumin-bound from the free (albumin-unbound) fractions of each sample. The inserts of the filter devices were inverted and centrifuged at 200 rcf for 3 min to recover the albumin-bound fraction. The activity of the albumin-bound fraction as well as the activity in the filtrate and in the filter unit were measured separately in a γ-counter (Perkin Elmer, Wallac Wizard 1480, Waltham, MA, USA). The percentage of radioconjugate bound to mouse and human albumin, respec-

[2] = n-octanol/PBS distribution coefficient (shake-flask) of 177Lu-RedFols; assay type: physicochemical; settings: n-octanol/PBS pH 7.4
Procedure: The radiolytic stability of ^177Lu-RedFols (50 MBq/nmol) in PBS pH 7.4 was investigated at an activity concentration of 100 MBq in 500 µL over 24 h at room temperature. The n-octanol/PBS distribution coefficients (logD values) of the folate radioconjugates (50 MBq/nmol) were determined using the same shake-flask method as used for the ^177Lu-DOTA-ALBs, including statistical analysis (Supplementary Material, Section S4). […]
S4. n-Octanol/PBS Distribution Coefficient of 177Lu-DOTA-ALBs
Purpose: The n-octanol/PBS distribution coefficients (logD values) were determined for all 177Lu-DOTA-ALBs in order to assess their hydrophilic/hydrophobic properties.
Methods: The n-octanol/PBS distribution coefficients (logD values) of the 177Lu-DOTA-ALBs were determined as previously described. […] 4 . […]
The vials were vortexed vigorously for 1 min followed by centrifugation for 6 min at 560 rcf for phase separation. An aliquot was taken from each phase and measured in a γ-counter (Perkin Elmer, Wallac Wizard 1480, Waltham, MA, USA). The distribution coeffi-cients were calculated as the logarithm of the ratio of counts per minute (cpm) measured in the n-octanol phase relative to the cpm measured in the PBS phase. The results were listed as the average ± standard deviation (SD) of the data obtained from 2–3 independent experiments, each performed with five replicates. […]

folate receptor (FR) = target: T1, folate receptor (FR) (Homo sapiens, UniProt P15328); test: FR-binding affinity (KD) of 177Lu-RedFols on IGROV-1 cells; settings: 1 h at 4 °C, read-out: KD Value (95% CI)
T1 construct: endogenous in cells; host or cells: IGROV-1 (human ovarian carcinoma cell line), intact cells on ice
T1 sequence (P15328 25-257): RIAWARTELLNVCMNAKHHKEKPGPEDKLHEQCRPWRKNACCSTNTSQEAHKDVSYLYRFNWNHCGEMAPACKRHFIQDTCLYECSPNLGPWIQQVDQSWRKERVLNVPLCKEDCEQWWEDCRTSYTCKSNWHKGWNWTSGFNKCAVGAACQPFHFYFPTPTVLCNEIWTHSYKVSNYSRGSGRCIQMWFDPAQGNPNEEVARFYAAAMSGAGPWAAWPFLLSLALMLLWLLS
Procedure: (100 µM) to block FRs on the cell surface. The IGROV-1 tumor cells were incubated for 1 h at 4 °C on a shaker, followed by removal of the supernatants and rinsing of the cells twice with PBS. After lysis of the cells with NaOH solution (1 M, 500 µL), the samples were counted for activity using a γ-counter (Wallac Wizard 1480, Perkin Elmer, Waltham, MA, USA). The cpm of the specific binding (determined by subtracting the cpm of the non-specific binding from the cpm of total binding), were plotted against the molar con-centration of the added folate radioconjugates. Non-linear regression analysis was per-formed using GraphPad Prism software (version 8) to obtain KD values from one curve of 3−5 independent experiments, each performed in triplicates.
Results: The results are reported in the main article. […]

Compound	Relative albumin-binding affinity [1]	Albumin-bound fraction [1]	logD Values [2]	Kd (folate receptor (FR))	logD [2]
CN1c2c(nc(N)[nH]c2=O)NC[C@H]1CNc1ccc(C(=O)N[C@@H](CCC(=O)N[C@@H](CCCCNC(=O)CN2CCN(CC(=O)O)CCN(CC(=O)O)CCN(CC(=O)O)CC2)C(=O)N[C@@H](CCCCNC(=O)CCCc2ccc(I)cc2)C(=O)O)C(=O)O)cc1 [[^177Lu]Lu-6R-RedFol-1, metal not drawn]	1.0	98%			
CN1c2c(nc(N)[nH]c2=O)NC[C@H]1CNc1ccc(C(=O)N[C@@H](CCC(=O)N[C@@H](CCCCNC(=O)CN2CCN(CC(=O)O)CCN(CC(=O)O)CCN(CC(=O)O)CC2)C(=O)N[C@@H](CCCCNC(=O)c2ccc(CNC(=O)CCCc3ccc(I)cc3)cc2)C(=O)O)C(=O)O)cc1 [[^177Lu]Lu-6R-RedFol-3, metal not drawn]	1.1	97%	−3.2 ± 0.1	4.7 nM	
CN1c2c(nc(N)[nH]c2=O)NC[C@H]1CNc1ccc(C(=O)N[C@@H](CCC(=O)N[C@@H](CCCCNC(=O)CN2CCN(CC(=O)O)CCN(CC(=O)O)CCN(CC(=O)O)CC2)C(=O)N[C@@H](CCCCNC(=O)CCCCc2ccc(I)cc2)C(=O)O)C(=O)O)cc1 [[^177Lu]Lu-6R-RedFol-24, metal not drawn]	0.5	94%		4.7 nM	-3.4 ± 0.2
CN1c2c(nc(N)[nH]c2=O)NC[C@H]1CNc1ccc(C(=O)N[C@@H](CCC(=O)N[C@@H](CCCCNC(=O)CN2CCN(CC(=O)O)CCN(CC(=O)O)CCN(CC(=O)O)CC2)C(=O)N[C@@H](CCCCNC(=O)c2ccc(CNC(=O)CCCCc3ccc(I)cc3)cc2)C(=O)O)C(=O)O)cc1 [[^177Lu]Lu-6R-RedFol-25, metal not drawn]	0.5	96%	−3.0 ± 0.1	3.6 nM	
CN1c2c(nc(N)[nH]c2=O)NCC1CNc1ccc(C(=O)NC(CCC(=O)NC(CCCCNC(=O)CN2CCN(CC(=O)[O-])CCN(CC(=O)[O-])CCN(CC(=O)[O-])CC2)C(=O)NC(CCCCNC(=O)CCCc2ccc(I)cc2)C(=O)O)C(=O)O)cc1.[177Lu+3] (stereo not drawn) [[^177Lu]Lu-6S-RedFol-1]	1.0	98%			
CN1c2c(nc(N)[nH]c2=O)NCC1CNc1ccc(C(=O)NC(CCC(=O)NC(CCCCNC(=O)CN2CCN(CC(=O)[O-])CCN(CC(=O)[O-])CCN(CC(=O)[O-])CC2)C(=O)NC(CCCCNC(=O)c2ccc(CNC(=O)CCCc3ccc(I)cc3)cc2)C(=O)O)C(=O)O)cc1.[177Lu+3] (stereo not drawn) [[^177Lu]Lu-6S-RedFol-3]	1.1	97%	−3.2 ± 0.1	2.8 nM	
CN1c2c(nc(N)[nH]c2=O)NCC1CNc1ccc(C(=O)NC(CCC(=O)NC(CCCCNC(=O)CN2CCN(CC(=O)[O-])CCN(CC(=O)[O-])CCN(CC(=O)[O-])CC2)C(=O)NC(CCCCNC(=O)c2ccc(CNC(=O)CCCCc3ccc(I)cc3)cc2)C(=O)O)C(=O)O)cc1.[177Lu+3] (stereo not drawn) [[^177Lu]Lu-6S-RedFol-25]	0.2	91%	−3.0 ± 0.1	2.2 nM	
